Key:
dogs = assay: inhibitory action on ventricular extra systole on reperfusion of the occluded coronary artery in anesthetized open-chest dogs; format: in vivo; conditions: 60 min coronary occlusion then 20 min reperfusion, 300 mg/kg i.v. + 10 mg/kg/min i.v., mean ± standard deviation, P < 0.05 vs control group (35.9 ± 10.2)
Method: The inhibitory action of glutathione monoisopropyl ester on ventricular extra systole occurred when the occluded coronary artery was reperfused in dogs was tested with the following method.
Measurement was carried out by partially modifying Gibsons' method (J. Cardiovasc. Pharmacol., 5, 517-524, 1983). Dogs (Mongrel, female and male, 9-18 kg) were anesthetized with pentobarbital, the chest was opened under artificial respiration. And then the left coronary artery anterior descending segmental branch was occluded for 60 minutes. Thereafter, a reperfusion was carried out for 20 minutes and then blood pressure and heart rate as well as the heart surface electrocardiogram were measured.
The glutathione monoisopropyl ester (GE) was intravenously administered in a single dose of 300 mg/kg 30 minutes after the coronary artery occlusion and continuous injection was carried out in the amount of 10 mg/kg/min, i.v., until the completion of this test from 40 minutes after the coronary artery occlusion. The effect of an agent was evaluated by the number of the ventricular extra systole for a minute, which had been occured during the time period of reperfusion.

mice = assay: acute toxicity (LD50), intraperitoneal injection to mice; format: in vivo

CC(C)OC(=O)CNC(=O)[C@H](CS)NC(=O)CC[C@H](N)C(=O)O [GE, isopropyl r-L-glutamyl-L-cysteinyl glycinate]
Number of ventricular extra systole (dogs): 10.0 ± 5.6 counts/min | acute toxicity (LD50) (mice): approximately 5.3 g/kg

From US4968671A, “Therapeutic agents for ischemic heart diseases” (Yamanouchi Pharmaceutical Co., Ltd., priority 1987, dated 1990)
